# Data taken from US11254671B2, “Chemical compounds” (GLAXOSMITHKLINE INTELLECTUAL PROPERTY DEVELOPMENT LIMITED, priority 2017, dated 2022).
# Several values for one entry are separate records, joined by “and”; a condition that tells them apart may be missing. Equal entries are not always repeated.
# Molecular target: T1, mTOR (Homo sapiens, UniProt P42345)
# T1 construct: capturing of endogenously expressed target proteins from cell extracts by a bead-immobilized capturing ligand; endogenous in cells; host or cells: HuT-78 cells (ECACC 88041901), cell lysate
# Assay: mTOR kinobeads assay (competition-binding assay)
# Details: HuT-78 cell extract, endogenously expressed mTOR, bead-immobilized capturing ligand; mean of multiple experiments; read-out: mean pIC50, affinity for mTOR (converted)
# In short: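 Competition binding of endogenous mTOR from HuT-78 cell lysate (250 μg, 5 mg/ml) to immobilized Compound A/C beads, 2 h at 4 °C, pH 7.5, 2% DMSO, 11-point series. Bead-bound mTOR eluted, dot-blotted, detected by anti-mTOR infrared immunofluorescence; normalized to DMSO and 100 μM Compound B controls, 4-parameter fit to pIC50.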
row,IC50,SMILES
1,0.00251 to 0.0316 µM and 0.00251 to 0.316 µM,"CC[C@H]1COCCN1c1cc(CS(=O)(=O)NC)cc(-c2ccc3[nH]c(CNC)cc3n2)n1 [Example 30, 1-{2-[(3S)-3-ethylmorpholin-4-yl]-6-{2-[(methylamino)methyl]-1H-pyrrolo[3,2-b]pyridin-5-yl}pyridin-4-yl}-N-methylmethanesulfonamide]"
2,0.00251 to 0.0316 µM and 0.00251 to 0.316 µM,"CC[C@H]1COCCN1c1cc(CS(=O)(=O)N(C)C)cc(-c2ccc3[nH]c(CO)cc3n2)n1 [Example 35, 1-{2-[(3S)-3-ethylmorpholin-4-yl]-6-[2-(hydroxymethyl)-1H-pyrrolo[3,2-b]pyridin-5-yl]pyridin-4-yl}-N,N-dimethylmethanesulfonamide]"
3,0.00251 to 0.0316 µM and 0.00251 to 0.316 µM,"CC[C@H]1COCCN1c1cc(C(C)(C)S(N)(=O)=O)cc(-c2ccc3[nH]c(CNC)cc3n2)n1 [Example 28, 2-{2-[(3S)-3-ethylmorpholin-4-yl]-6-{2-[(methylamino)methyl]-1H-pyrrolo[3,2-b]pyridin-5-yl}pyridin-4-yl}propane-2-sulfonamide]"
